T/C data for 15 molecules are collected here from PubChem BioAssay AID248 (DTP/NCI, 2004).

This test deals with L1210 leukemia ip in BDF1 mice, survival T/C. In words: NCI In Vivo Anticancer Drug Screen. Data for tumor model L1210 Leukemia (intraperitoneal) in B6D2F1 (BDF1) mice. The settings on record: endpoint: mean survival time, higher = longer survival. Summed up:
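Value reflects the ratio of survival in compound-treated mice to survival in vehicle-treated controls, with both groups carrying the same transplanted tumor.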

[1] abbreviates: dose: 25.0 mg/kg/injection, schedule: Q01DX009 (ip), vehicle: saline.
[2] abbreviates: dose: 100.0 mg/kg/injection, schedule: Q01DX009 (ip), vehicle: saline.
Where [3] appears, read: dose: 25.0 mg/kg/injection, schedule: Q04DX003 (ip), vehicle: saline.
Setting [4] is: dose: 50.0 mg/kg/injection, schedule: Q01DX009 (ip), vehicle: saline.
The mark [5] stands for this setting: dose: 50.0 mg/kg/injection, schedule: Q04DX003 (ip), vehicle: saline.
Setting [6] is: dose: 100.0 mg/kg/injection, schedule: Q04DX003 (ip), vehicle: saline with Tween-80.
Setting [7] is: dose: 200.0 mg/kg/injection, schedule: Q04DX003 (ip), vehicle: saline with Tween-80.
Where [8] appears, read: dose: 50.0 mg/kg/injection, schedule: Q01DX001 (ip), vehicle: saline.
The mark [9] stands for this setting: dose: 100.0 mg/kg/injection, schedule: Q01DX009 (ip), vehicle: Klucel (hydroxypropylcellulose) (HPC).
Setting [10] is: dose: 200.0 mg/kg/injection, schedule: Q01DX009 (ip), vehicle: Klucel (hydroxypropylcellulose) (HPC).
The mark [11] stands for this setting: dose: 400.0 mg/kg/injection, schedule: Q01DX009 (ip), vehicle: Klucel (hydroxypropylcellulose) (HPC).
[12] abbreviates: dose: 100.0 mg/kg/injection, schedule: Q04DX003 (ip), vehicle: Klucel (hydroxypropylcellulose) (HPC).
[13] abbreviates: dose: 200.0 mg/kg/injection, schedule: Q04DX003 (ip), vehicle: Klucel (hydroxypropylcellulose) (HPC).
Setting [14] is: dose: 400.0 mg/kg/injection, schedule: Q04DX003 (ip), vehicle: Klucel (hydroxypropylcellulose) (HPC).

Values joined by “and” are separate entries in the source; they are usually repeats but may differ in a detail not shown here. Equal values may be shown once. Toxic doses and inconclusive results are not listed. Peptide text beside a SMILES is read from it.

In the case of `O=C(OCC1OC(n2cnc3c(=S)nc[nH]c32)C(OC(=O)c2ccccc2)C1OC(=O)c1ccccc1)c1ccccc1` (centres undefined), the T/C was 118 % of control under setting [1]; 109 % of control (dose: 25.0 mg/kg/injection, schedule: Q01DX Z (ip), vehicle: saline); 124 % of control (dose: 39.0 mg/kg/injection, schedule: Q01DX Z (ip), vehicle: carboxymethylcellulose (CMC)); 117 % of control (dose: 50.0 mg/kg/injection, schedule: Q01DX Z (ip), vehicle: saline); 118 % of control (dose: 88.0 mg/kg/injection, schedule: Q01DX Z (ip), vehicle: carboxymethylcellulose (CMC)); 168 % of control under setting [2]. Moreover, the T/C runs as follows: (dose: 110.0 mg/kg/injection, schedule: Q01DX009 (ip), vehicle: saline) 123 % of control; (dose: 220.0 mg/kg/injection, schedule: Q01DX009 (ip), vehicle: saline) 150 % of control; (dose: 222.0 mg/kg/injection, schedule: Q01DX Z (ip), vehicle: saline) 95 % of control; (dose: 300.0 mg/kg/injection, schedule: Q01DX Z (ip), vehicle: carboxymethylcellulose (CMC)) 150 % of control and 168 % of control; (dose: 300.0 mg/kg/injection, schedule: Q01DX Z (ip), vehicle: methylcellulose (MC)) 112 % of control; (dose: 450.0 mg/kg/injection, schedule: Q01DX Z (ip), vehicle: carboxymethylcellulose (CMC)) 171 % of control. The T/C (dose: 450.0 mg/kg/injection, schedule: Q01DX Z (ip), vehicle: methylcellulose (MC)) is 97 % of control; the T/C (dose: 600.0 mg/kg/injection, schedule: Q01DX001 (ip), vehicle: saline) was 120 % of control; the T/C (dose: 675.0 mg/kg/injection, schedule: Q01DX Z (ip), vehicle: carboxymethylcellulose (CMC)) is 100 % of control and 109 % of control; the T/C (dose: 1007.0 mg/kg/injection, schedule: Q01DX Z (ip), vehicle: carboxymethylcellulose (CMC)) is 93 % of control; the T/C (dose: 1510.0 mg/kg/injection, schedule: Q01DX Z (ip), vehicle: carboxymethylcellulose (CMC)) is 90 % of control.
For the molecule `CNC(=O)ON=C(C)C`, the T/C is, setting by setting: (dose: 75.0 mg/kg/injection, schedule: Q01DX001 (ip), vehicle: saline) 102 % of control; (dose: 75.0 mg/kg/injection, schedule: Q01DX009 (ip), vehicle: saline) 99 % of control; (dose: 150.0 mg/kg/injection, schedule: Q01DX001 (ip), vehicle: saline) 102 % of control; (dose: 150.0 mg/kg/injection, schedule: Q01DX009 (ip), vehicle: saline) 94 % of control; (dose: 300.0 mg/kg/injection, schedule: Q01DX001 (ip), vehicle: saline) 109 % of control; (dose: 300.0 mg/kg/injection, schedule: Q01DX009 (ip), vehicle: saline) 108 % of control.
For `COCOCP(=O)(OC)OC`, the T/C by setting is: (dose: 100.0 mg/kg/injection, schedule: Q01DX001 (ip), vehicle: acetone) 102 % of control; (dose: 100.0 mg/kg/injection, schedule: Q04DX003 (ip), vehicle: acetone) 106 % of control; (dose: 200.0 mg/kg/injection, schedule: Q01DX001 (ip), vehicle: acetone) 98 % of control; (dose: 200.0 mg/kg/injection, schedule: Q04DX003 (ip), vehicle: acetone) 98 % of control; (dose: 400.0 mg/kg/injection, schedule: Q01DX001 (ip), vehicle: acetone) 95 % of control; (dose: 400.0 mg/kg/injection, schedule: Q04DX003 (ip), vehicle: acetone) 92 % of control.
On to `CC12CCC(C1)C(C)(C)C2NCCCN1C(=O)c2ccc3c4c(ccc(c24)C1=O)C(=O)N(CCCNC1C2(C)CCC(C2)C1(C)C)C3=O` (centres undefined), for which the T/C is 102 % of control under setting [1]; 98 % of control under setting [3]; 117 % of control under setting [4]; 94 % of control under setting [5]; 96 % of control and 90 % of control (dose: 100.0 mg/kg/injection, schedule: Q04DX003 (ip), vehicle: saline).
In the case of `COC(=O)C1C2C=CC(C3CCC23)C1C(=O)OC` (centres undefined), the T/C is 92 % of control under setting [6]; 91 % of control under setting [7]; 94 % of control (dose: 400.0 mg/kg/injection, schedule: Q04DX003 (ip), vehicle: saline with Tween-80).
On to `CCCCC(CC)COP(=O)(OCC(CC)CCCC)c1ccccc1` (centres undefined), for which the T/C by setting is: under setting [8], 100 % of control; (dose: 100.0 mg/kg/injection, schedule: Q01DX001 (ip), vehicle: saline) 100 % of control.
In the case of `OCC1OC(n2cc(Br)c3c2ncn2ccnc32)C(O)C1O` (centres undefined), the T/C (dose: 50.0 mg/kg/injection, schedule: Q01DX005 (ip), vehicle: saline) was 98 % of control; the T/C (dose: 100.0 mg/kg/injection, schedule: Q01DX005 (ip), vehicle: saline) was 104 % of control; the T/C (dose: 200.0 mg/kg/injection, schedule: Q01DX005 (ip), vehicle: saline) was 104 % of control.
Take `CC(=O)c1cc(C)c(C)s1`: the T/C (dose: 12.5 mg/kg/injection, schedule: Q01DX009 (ip), vehicle: saline with Tween-80) is 107 % of control; the T/C (dose: 25.0 mg/kg/injection, schedule: Q01DX009 (ip), vehicle: saline with Tween-80) was 110 % of control; the T/C (dose: 50.0 mg/kg/injection, schedule: Q01DX009 (ip), vehicle: saline with Tween-80) is 100 % of control; the T/C under setting [6] was 90 % of control; the T/C (dose: 200.0 mg/kg/injection, schedule: Q01DX009 (ip), vehicle: saline with Tween-80) was 86 % of control; the T/C under setting [7] is 96 % of control.
`Cc1ccc(NC(=O)/C=C/c2ccccc2)cc1Cl`: the T/C runs as follows: under setting [9], 95 % of control; under setting [10], 98 % of control; under setting [11], 104 % of control.
With `COC(=O)c1ccc(NCC(C)(C)N)cc1`, the T/C by setting is: (dose: 12.0 mg/kg/injection, schedule: Q01DX001 (ip), vehicle: saline) 94 % of control; (dose: 12.0 mg/kg/injection, schedule: Q01DX009 (ip), vehicle: saline) 98 % of control; (dose: 12.0 mg/kg/injection, schedule: Q04DX003 (ip), vehicle: saline) 97 % of control; (dose: 25.0 mg/kg/injection, schedule: Q01DX001 (ip), vehicle: saline) 96 % of control; under setting [1], 105 % of control; under setting [3], 104 % of control. In addition, the T/C under setting [8] was 101 % of control, the T/C under setting [4] was 93 % of control and the T/C under setting [5] is 97 % of control.
Consider `CCOC(=O)/C=C(\C)OC`, for which the T/C is 102 % of control under setting [9]; 96 % of control under setting [12]; 97 % of control under setting [10]; 105 % of control under setting [13]; 94 % of control under setting [11]; 100 % of control under setting [14].
Regarding `CCCCCCCCCC(=O)Oc1nncc(=O)[nH]1`, the T/C reads like this: under setting [4], 87 % of control; under setting [2], 97 % of control; (dose: 200.0 mg/kg/injection, schedule: Q01DX009 (ip), vehicle: saline) 104 % of control.
In the case of `NC(CCC(=O)O)C(=O)NC(CO)C(=O)O` (stereo not drawn) (H-Glu-Ser-OH; configuration not given here), the T/C is, setting by setting: (dose: 100.0 mg/kg/injection, schedule: Q01DX001 (ip), vehicle: saline with Tween-80) 92 % of control; (dose: 200.0 mg/kg/injection, schedule: Q01DX001 (ip), vehicle: saline with Tween-80) 89 % of control.
In the case of `Cc1ccc(-n2ccnc2)c(N=Cc2ccc(N(CCCl)CCCl)cc2Cl)c1`, the T/C was 102 % of control (dose: 100.0 mg/kg/injection, schedule: Q04DX002 (ip), vehicle: Klucel (hydroxypropylcellulose) (HPC)); 102 % of control (dose: 200.0 mg/kg/injection, schedule: Q04DX002 (ip), vehicle: Klucel (hydroxypropylcellulose) (HPC)); 102 % of control (dose: 400.0 mg/kg/injection, schedule: Q04DX002 (ip), vehicle: Klucel (hydroxypropylcellulose) (HPC)).
For the molecule `CCOc1cc(N)ccc1C`, the T/C runs as follows: under setting [9], 97 % of control; under setting [12], 108 % of control; under setting [10], 99 % of control; under setting [13], 97 % of control; under setting [14], 101 % of control.
